According to US20130071854A1, “METHODS FOR THE IDENTIFICATION AND CHARACTERIZATION OF HDAC INTERACTING COMPOUNDS” (priority 2009, published 2013):
Where two headings read alike, the source gives them in different places. Values belong to the compound of their own block, whether it stands above or below them.

How the values were obtained:
[1] = system: EHMT2; assay: Chemoproteomic binding profiling, K562 cell extract, SAHA/ITF2357 probe matrix (Kd app), ELSA (ELM-SANT) domain proteins group; parameters: species or system human; details: protein EHMT2
[2] = system: MIER3; assay: Chemoproteomic binding profiling, K562 cell extract, SAHA/ITF2357 probe matrix (Kd app), ELSA (ELM-SANT) domain protein; parameters: species or system human; details: ELSA (ELM-SANT) domain proteins
[3] = system: MIER2; assay: as above; parameters: species or system human; details: ELSA (ELM-SANT) domain proteins
[4] = system: RERE; assay: as above; parameters: species or system human; details: protein RERE; ELSA (ELM-SANT) domain proteins
[5] = biological target: T1, non-HDAC targets (e.g. BZW2, ISOC2, aldehyde dehydrogenases) (Homo sapiens, UniProt Q9Y6E2); assay: Chemoproteomic binding profiling, K562 cell extract, SAHA/ITF2357 probe matrix (Kd app); details: protein BZW2; selected HDACi off-targets
T1 construct: endogenous in cells; host or cells: K562 whole cell extract
T1 sequence (Q9Y6E2 1-419): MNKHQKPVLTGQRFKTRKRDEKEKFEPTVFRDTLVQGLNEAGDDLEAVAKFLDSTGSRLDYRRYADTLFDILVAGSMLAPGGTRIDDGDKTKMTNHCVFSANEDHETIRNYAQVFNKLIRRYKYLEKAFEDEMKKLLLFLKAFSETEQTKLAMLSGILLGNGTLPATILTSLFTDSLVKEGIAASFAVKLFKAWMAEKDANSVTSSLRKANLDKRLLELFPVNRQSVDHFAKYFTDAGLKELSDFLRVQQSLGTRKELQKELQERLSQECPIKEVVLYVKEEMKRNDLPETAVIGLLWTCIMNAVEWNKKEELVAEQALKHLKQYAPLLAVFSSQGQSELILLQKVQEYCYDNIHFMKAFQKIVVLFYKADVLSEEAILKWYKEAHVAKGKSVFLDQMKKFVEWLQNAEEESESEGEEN

[6] = biological target: T2, non-HDAC targets (e.g. BZW2, ISOC2, aldehyde dehydrogenases) (Homo sapiens, UniProt O94788); assay: as above; details: protein ALDH1A2; selected HDACi off-targets
T2 construct: endogenous in cells; host or cells: K562 whole cell extract
T2 sequence (O94788 1-518): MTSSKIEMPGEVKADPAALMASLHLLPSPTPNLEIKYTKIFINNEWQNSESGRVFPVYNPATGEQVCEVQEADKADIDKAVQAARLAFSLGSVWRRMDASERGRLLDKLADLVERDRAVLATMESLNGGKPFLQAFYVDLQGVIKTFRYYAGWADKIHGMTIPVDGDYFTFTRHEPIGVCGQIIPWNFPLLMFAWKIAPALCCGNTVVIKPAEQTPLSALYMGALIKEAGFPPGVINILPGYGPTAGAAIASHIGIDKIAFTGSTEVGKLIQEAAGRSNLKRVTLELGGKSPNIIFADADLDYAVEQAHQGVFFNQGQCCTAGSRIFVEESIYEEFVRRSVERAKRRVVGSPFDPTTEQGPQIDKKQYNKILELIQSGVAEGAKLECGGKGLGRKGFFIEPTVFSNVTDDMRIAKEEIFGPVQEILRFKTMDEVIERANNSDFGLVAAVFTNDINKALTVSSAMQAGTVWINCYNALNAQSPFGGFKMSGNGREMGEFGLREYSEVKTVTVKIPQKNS

[7] = biological target: T3, non-HDAC targets (e.g. BZW2, ISOC2, aldehyde dehydrogenases) (Homo sapiens, UniProt Q96AB3); assay: as above; details: protein ISOC2; selected HDACi off-targets
T3 construct: endogenous in cells; host or cells: K562 whole cell extract
T3 sequence (Q96AB3 1-205): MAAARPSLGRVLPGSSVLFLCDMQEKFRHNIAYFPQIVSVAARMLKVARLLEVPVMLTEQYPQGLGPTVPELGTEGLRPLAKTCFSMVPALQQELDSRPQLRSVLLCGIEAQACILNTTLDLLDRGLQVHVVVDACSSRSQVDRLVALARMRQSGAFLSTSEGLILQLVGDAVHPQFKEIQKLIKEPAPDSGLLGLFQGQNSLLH

[8] = biological target: T4, non-HDAC targets (e.g. BZW2, ISOC2, aldehyde dehydrogenases) (Homo sapiens, UniProt P16152); assay: as above; details: protein CBR1; selected HDACi off-targets
T4 construct: Kd^app CBR1; other: protein CBR1; selected HDACi off-targets
T4 sequence (P16152 1-277): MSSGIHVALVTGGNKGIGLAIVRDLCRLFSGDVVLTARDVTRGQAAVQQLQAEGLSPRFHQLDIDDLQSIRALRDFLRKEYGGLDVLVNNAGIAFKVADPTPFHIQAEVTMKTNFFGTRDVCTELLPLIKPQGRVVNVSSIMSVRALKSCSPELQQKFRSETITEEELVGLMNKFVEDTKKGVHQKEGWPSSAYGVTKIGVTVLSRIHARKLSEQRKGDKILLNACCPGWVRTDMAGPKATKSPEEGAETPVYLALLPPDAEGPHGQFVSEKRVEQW

[9] = biological target: T5, non-HDAC targets (e.g. BZW2, ISOC2, aldehyde dehydrogenases) (Homo sapiens, UniProt Q08209); assay: as above; details: protein PPP3CA; selected HDACi off-targets
T5 construct: Kd^app PPP3CA; other: protein PPP3CA; selected HDACi off-targets

[10] = system: CoREST complex; assay: as above; parameters: species or system human
[11] = biological target: T6, HDAC10 (Homo sapiens, UniProt Q969S8); assay: as above; details: protein HDAC10; class II HDAC; read-out: Kd^app HDAC10
T6 construct: used to probe endogenous HDACs in K562 whole cell extracts; endogenous in cells
T6 sequence (Q969S8 1-669): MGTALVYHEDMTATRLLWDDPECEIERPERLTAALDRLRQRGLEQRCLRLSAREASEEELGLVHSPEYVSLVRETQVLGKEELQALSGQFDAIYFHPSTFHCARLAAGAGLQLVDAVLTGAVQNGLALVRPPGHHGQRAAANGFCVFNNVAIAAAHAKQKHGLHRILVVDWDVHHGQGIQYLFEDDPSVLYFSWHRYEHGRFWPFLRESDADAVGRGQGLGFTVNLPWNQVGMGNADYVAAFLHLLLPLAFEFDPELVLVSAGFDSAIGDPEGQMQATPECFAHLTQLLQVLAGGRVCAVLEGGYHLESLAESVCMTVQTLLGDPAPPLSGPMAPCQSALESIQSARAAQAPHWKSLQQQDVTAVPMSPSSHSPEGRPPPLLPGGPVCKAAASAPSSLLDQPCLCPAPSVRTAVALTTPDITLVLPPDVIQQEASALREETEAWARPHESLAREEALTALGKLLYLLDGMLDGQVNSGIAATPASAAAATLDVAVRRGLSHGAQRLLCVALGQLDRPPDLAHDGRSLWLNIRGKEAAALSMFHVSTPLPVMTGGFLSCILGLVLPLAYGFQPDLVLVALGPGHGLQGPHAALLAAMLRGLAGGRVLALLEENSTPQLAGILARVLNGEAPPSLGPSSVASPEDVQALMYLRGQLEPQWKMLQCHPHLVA

[12] = system: MIER1; assay: Chemoproteomic binding profiling, K562 cell extract, SAHA/ITF2357 probe matrix (Kd app), ELSA (ELM-SANT) domain protein; parameters: species or system human; details: ELSA (ELM-SANT) domain proteins
[13] = system: NuRD complex; assay: Chemoproteomic binding profiling, K562 cell extract, SAHA/ITF2357 probe matrix (Kd app); parameters: species or system human
[14] = system: acetylated histones H3 and H4; assay: Cell-based histone acetylation assay (immunofluorescence, western blotting); parameters: species or system human; details: K562 and HeLa cells
[15] = system: acetylated tubulin; assay: Cell-based tubulin acetylation assay (immunofluorescence, western blotting); parameters: species or system human; details: K562 and HeLa cells; immunofluorescence and western blotting

Compound: O=C(CCCCCN1C(=O)c2cccc3cccc(c23)C1=O)NO [scriptaid]
Kd [1]: 1.3 µM
Kd [2]: 0.32 µM
Kd [3]: 0.81 µM
Kd [4]: 0.79 µM
Kd [5]: 4.84 µM
Kd [6]: 5.38 µM
Kd [7]: 0.35 µM
Kd [8]: > 10 µM
Kd [9]: > 10 µM

Compound: Nc1ccccc1NC(=O)c1ccc(CNc2nccc(-c3cccnc3)n2)cc1 [Mocetinostat]
Kd [1]: > 271 µM
Kd ([10]; read-out: Kd^app GSE1): 50 µM
Kd ([10]; read-out: Kd^app HMG20A): 53 µM
Kd ([10]; read-out: Kd^app HMG20B): 62 µM
Kd ([10]; read-out: Kd^app PHF21A): 189 µM
Kd ([10]; read-out: Kd^app RCOR1): 48 µM
Kd ([10]; read-out: Kd^app RCOR2): 103 µM
Kd ([10]; read-out: Kd^app RCOR3): 60 µM
Kd ([10]; read-out: Kd^app ZMYM2): 124 µM
Kd ([10]; read-out: Kd^app ZMYM3): 255 µM
Kd [2]: 34 µM
Kd [3]: 99 µM
Kd [11]: > 271 µM
Kd [12]: 73 µM
Kd ([13]; read-out: Kd^app CHD4): 170 µM
Kd ([13]; read-out: Kd^app GATAD2A): 183 µM
Kd ([13]; read-out: Kd^app GATAD2B): 106 µM
Kd ([13]; read-out: Kd^app MBD2): 217 µM
Kd ([13]; read-out: Kd^app MBD3): 119 µM
Kd ([13]; read-out: Kd^app MTA1): 136 µM
Kd ([13]; read-out: Kd^app MTA3): 87 µM
Kd [4]: > 271 µM
Kd [5]: > 271 µM
Kd [6]: 230 µM
Kd [7]: > 271 µM
Kd [8]: 109 µM
Kd [9]: > 271 µM

Kd [5]: > 10 µM
Kd [6]: > 10 µM
Kd [7]: > 10 µM
Kd [8]: > 10 µM
Kd [9]: > 10 µM
Compound: CN(C)Cc1c(C(=O)NCCOc2ccc(C(=O)NO)cc2)oc2ccccc12 [PCI-24781]
Kd ([10]; protein GSE1, CoREST complex, read-out: Kd^app GSE1): 0.02 µM
Kd ([10]; protein HMG20A, CoREST complex, read-out: Kd^app HMG20A): 0.02 µM
Kd ([10]; protein HMG20B, CoREST complex, read-out: Kd^app HMG20B): 0.03 µM
Kd ([10]; protein PHF21A, CoREST complex, read-out: Kd^app PHF21A): 0.05 µM
Kd ([10]; protein RCOR1, CoREST complex, read-out: Kd^app RCOR1): 0.02 µM
Kd ([10]; protein RCOR2, CoREST complex, read-out: Kd^app RCOR2): 0.02 µM
Kd ([10]; protein RCOR3, CoREST complex, read-out: Kd^app RCOR3): 0.02 µM
Kd ([10]; protein ZMYM2, CoREST complex, read-out: Kd^app ZMYM2): 0.02 µM
Kd ([10]; protein ZMYM3, CoREST complex, read-out: Kd^app ZMYM3): 0.04 µM
Kd [2]: 0.02 µM
histone acetylation (in words) [14]: increased steady state acetylation of tubulin and histones
tubulin acetylation (in words) [15]: increased steady state acetylation of tubulin and histones
Kd [12]: 0.06 µM
Kd ([13]; protein CHD4, NuRD complex, read-out: Kd^app CHD4): 0.16 µM
Kd ([13]; protein GATAD2A, NuRD complex, read-out: Kd^app GATAD2A): 0.06 µM
Kd ([13]; protein GATAD2B, NuRD complex, read-out: Kd^app GATAD2B): 0.07 µM
Kd ([13]; protein MBD2, NuRD complex, read-out: Kd^app MBD2): 0.17 µM
Kd ([13]; protein MBD3, NuRD complex, read-out: Kd^app MBD3): 0.04 µM
Kd ([13]; protein MTA1, NuRD complex, read-out: Kd^app MTA1): 0.05 µM
Kd ([13]; protein MTA2, NuRD complex, read-out: Kd^app MTA2): 0.06 µM
Kd ([13]; protein MTA3, NuRD complex, read-out: Kd^app MTA3): 0.05 µM
Kd [4]: 0.21 µM
